{
  "source": "paper PMC5078040",
  "about": "(Oncotarget, 2016)",
  "key": {"[1]": {"system": "panel of cancer cell lines derived from B-cell malignancies", "experiment": "Anti-proliferative assay (panel summary)", "type": "cell-based", "details": "Homo sapiens; most of the cell lines including AML, B-cell lymphoma and multiple myeloma cell lines", "experimental": "Cells were grown in 96-well culture plates (3000-4000/well). […] Cell proliferation was determined after treatment with compounds for 72 hours. Cell viability was measured using the CellTiter–Glo Assay Kit (Promega, USA), according to the manufacturer's instructions, and luminescence was measured in a multi-label reader (Envision, PerkinElmer, USA). Data were normalized to control groups (DMSO) and represented by the mean of three independent measurements with standard error <20%. GI50 values were calculated using Prism 5.0 (GraphPad Software, San Diego, CA)."}, "PKAC-alpha": {"target": "T1, PKAC-alpha (Homo sapiens, UniProt P17612)", "T1 construct": "purchased DiscoveRx KINOMEscan", "experiment": "KinomeScan", "type": "binding", "details": "1uM"}, "ERBB2": {"target": "T2, ERBB2 (Homo sapiens, UniProt P04626)", "T2 construct": "purchased DiscoveRx KINOMEscan", "experiment": "KinomeScan", "type": "binding", "details": "1uM"}, "p38-delta": {"target": "T3, p38-delta (Homo sapiens, UniProt O15264)", "T3 construct": "purchased DiscoveRx KINOMEscan", "experiment": "KinomeScan", "type": "binding", "details": "1uM"}, "ERN1": {"target": "T4, ERN1 (Homo sapiens, UniProt O75460)", "T4 construct": "purchased DiscoveRx KINOMEscan", "experiment": "KinomeScan", "type": "binding", "details": "1uM"}, "ERK2": {"target": "T5, ERK2 (Homo sapiens, UniProt P28482)", "T5 construct": "purchased DiscoveRx KINOMEscan", "experiment": "KinomeScan", "type": "binding", "details": "1uM"}, "DDR1": {"target": "T6, DDR1 (Homo sapiens, UniProt Q08345)", "T6 construct": "purchased DiscoveRx KINOMEscan", "experiment": "KinomeScan", "type": "binding", "details": "1uM"}, "IRAK4": {"target": "T7, IRAK4 (Homo sapiens, UniProt Q9NWZ3)", "T7 construct": "purchased DiscoveRx KINOMEscan", "experiment": "KinomeScan", "type": "binding", "details": "1uM"}, "EGFR(G719S)": {"target": "T8, EGFR(G719S) (Homo sapiens, UniProt P00533, G719S)", "T8 construct": "purchased DiscoveRx KINOMEscan", "experiment": "KinomeScan", "type": "binding", "details": "1uM"}, "GAK": {"target": "T9, GAK (Homo sapiens, UniProt O14976)", "T9 construct": "purchased DiscoveRx KINOMEscan", "experiment": "KinomeScan", "type": "binding", "details": "1uM"}, "MEK3": {"target": "T10, MEK3 (Homo sapiens, UniProt P46734)", "T10 construct": "purchased DiscoveRx KINOMEscan", "experiment": "KinomeScan", "type": "binding", "details": "1uM"}, "RIPK5": {"target": "T11, RIPK5 (Homo sapiens, UniProt Q6XUX3)", "T11 construct": "purchased DiscoveRx KINOMEscan", "experiment": "KinomeScan", "type": "binding", "details": "1uM"}, "PRKD3": {"target": "T12, PRKD3 (Homo sapiens, UniProt O94806)", "T12 construct": "purchased DiscoveRx KINOMEscan", "experiment": "KinomeScan", "type": "binding", "details": "1uM"}, "FLT4": {"target": "T13, FLT4 (Homo sapiens, UniProt P35916)", "T13 construct": "purchased DiscoveRx KINOMEscan", "T13 sequence (P35916 25-1363)": "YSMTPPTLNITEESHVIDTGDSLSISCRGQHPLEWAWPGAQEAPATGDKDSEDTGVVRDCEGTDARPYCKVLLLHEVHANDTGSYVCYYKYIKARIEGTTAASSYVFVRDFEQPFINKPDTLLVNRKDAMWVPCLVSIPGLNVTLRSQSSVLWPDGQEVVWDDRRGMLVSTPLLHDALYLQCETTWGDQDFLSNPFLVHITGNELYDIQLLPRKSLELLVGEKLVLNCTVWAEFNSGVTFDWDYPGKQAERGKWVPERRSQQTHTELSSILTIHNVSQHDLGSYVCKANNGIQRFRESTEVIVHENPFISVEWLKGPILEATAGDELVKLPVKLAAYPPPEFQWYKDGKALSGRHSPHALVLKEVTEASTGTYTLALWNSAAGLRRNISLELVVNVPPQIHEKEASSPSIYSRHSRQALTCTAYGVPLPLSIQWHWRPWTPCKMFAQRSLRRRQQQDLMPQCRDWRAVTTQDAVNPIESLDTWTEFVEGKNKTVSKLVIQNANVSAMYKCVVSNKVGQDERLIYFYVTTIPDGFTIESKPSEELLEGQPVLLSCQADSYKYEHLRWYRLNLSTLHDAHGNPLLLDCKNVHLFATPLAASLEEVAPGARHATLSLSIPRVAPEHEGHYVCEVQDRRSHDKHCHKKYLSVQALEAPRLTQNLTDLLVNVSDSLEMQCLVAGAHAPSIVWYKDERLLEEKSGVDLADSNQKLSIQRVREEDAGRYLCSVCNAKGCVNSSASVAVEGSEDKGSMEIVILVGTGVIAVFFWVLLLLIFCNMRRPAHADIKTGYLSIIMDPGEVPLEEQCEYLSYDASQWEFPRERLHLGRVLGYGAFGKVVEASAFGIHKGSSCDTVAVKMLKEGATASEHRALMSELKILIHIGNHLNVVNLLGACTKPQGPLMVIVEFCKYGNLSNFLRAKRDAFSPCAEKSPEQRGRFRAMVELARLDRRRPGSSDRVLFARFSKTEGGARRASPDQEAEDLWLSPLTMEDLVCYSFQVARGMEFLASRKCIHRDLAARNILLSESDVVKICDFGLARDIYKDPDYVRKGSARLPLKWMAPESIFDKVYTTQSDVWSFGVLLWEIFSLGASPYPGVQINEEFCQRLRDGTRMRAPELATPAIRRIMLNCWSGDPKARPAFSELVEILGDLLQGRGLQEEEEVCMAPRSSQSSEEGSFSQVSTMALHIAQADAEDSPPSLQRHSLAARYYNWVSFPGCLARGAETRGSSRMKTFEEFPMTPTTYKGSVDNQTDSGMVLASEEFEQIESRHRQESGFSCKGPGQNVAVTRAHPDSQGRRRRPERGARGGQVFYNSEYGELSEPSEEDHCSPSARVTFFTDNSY", "experiment": "KinomeScan", "type": "binding", "details": "1uM"}, "WNK3": {"target": "T14, WNK3 (Homo sapiens, UniProt Q9BYP7)", "T14 construct": "purchased DiscoveRx KINOMEscan", "experiment": "KinomeScan", "type": "binding", "details": "1uM"}, "SGK3": {"target": "T15, SGK3 (Homo sapiens, UniProt Q96BR1)", "T15 construct": "purchased DiscoveRx KINOMEscan", "experiment": "KinomeScan", "type": "binding", "details": "1uM"}, "SYK": {"target": "T16, SYK (Homo sapiens, UniProt P43405)", "T16 construct": "purchased DiscoveRx KINOMEscan", "experiment": "KinomeScan", "type": "binding", "details": "1uM"}, "CDK11": {"target": "T17, CDK11 (Homo sapiens, UniProt Q9BWU1)", "T17 construct": "purchased DiscoveRx KINOMEscan", "experiment": "KinomeScan", "type": "binding", "details": "1uM"}, "KIT(D816V)": {"target": "T18, KIT(D816V) (Homo sapiens, UniProt P10721, D816V)", "T18 construct": "purchased DiscoveRx KINOMEscan", "T18 sequence (P10721 26-976 D816V)": "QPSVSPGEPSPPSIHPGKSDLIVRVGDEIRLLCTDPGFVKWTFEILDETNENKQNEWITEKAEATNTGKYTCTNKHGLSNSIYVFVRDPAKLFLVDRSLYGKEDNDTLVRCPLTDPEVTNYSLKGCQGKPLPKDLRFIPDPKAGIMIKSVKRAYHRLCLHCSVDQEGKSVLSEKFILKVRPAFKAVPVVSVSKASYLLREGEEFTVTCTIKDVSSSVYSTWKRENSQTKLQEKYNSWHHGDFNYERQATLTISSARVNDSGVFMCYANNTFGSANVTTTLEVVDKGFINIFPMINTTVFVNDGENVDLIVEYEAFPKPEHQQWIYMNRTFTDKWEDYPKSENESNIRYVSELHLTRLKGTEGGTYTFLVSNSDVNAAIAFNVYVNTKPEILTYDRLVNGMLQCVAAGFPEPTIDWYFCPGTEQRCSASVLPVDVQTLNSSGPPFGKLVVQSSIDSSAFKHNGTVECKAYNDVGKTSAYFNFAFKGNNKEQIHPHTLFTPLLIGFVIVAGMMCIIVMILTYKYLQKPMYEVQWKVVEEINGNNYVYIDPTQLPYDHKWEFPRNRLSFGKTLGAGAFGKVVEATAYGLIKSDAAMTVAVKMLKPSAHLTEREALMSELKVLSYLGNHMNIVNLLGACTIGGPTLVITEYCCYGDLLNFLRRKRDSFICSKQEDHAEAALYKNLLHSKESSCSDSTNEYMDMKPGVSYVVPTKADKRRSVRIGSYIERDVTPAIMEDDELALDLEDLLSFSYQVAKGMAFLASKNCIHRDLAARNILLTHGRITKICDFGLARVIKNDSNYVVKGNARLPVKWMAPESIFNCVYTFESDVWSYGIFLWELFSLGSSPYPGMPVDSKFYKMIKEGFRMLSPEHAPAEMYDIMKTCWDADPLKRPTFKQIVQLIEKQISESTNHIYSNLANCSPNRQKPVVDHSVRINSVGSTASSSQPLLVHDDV", "experiment": "KinomeScan", "type": "binding", "details": "1uM"}, "CSNK1G2": {"target": "T19, CSNK1G2 (Homo sapiens, UniProt P78368)", "T19 construct": "purchased DiscoveRx KINOMEscan", "experiment": "KinomeScan", "type": "binding", "details": "1uM"}, "ERK5": {"target": "T20, ERK5 (Homo sapiens, UniProt Q13164)", "T20 construct": "purchased DiscoveRx KINOMEscan", "experiment": "KinomeScan", "type": "binding", "details": "1uM"}, "EPHA1": {"target": "T21, EPHA1 (Homo sapiens, UniProt P21709)", "T21 construct": "purchased DiscoveRx KINOMEscan", "T21 sequence (P21709 26-976)": "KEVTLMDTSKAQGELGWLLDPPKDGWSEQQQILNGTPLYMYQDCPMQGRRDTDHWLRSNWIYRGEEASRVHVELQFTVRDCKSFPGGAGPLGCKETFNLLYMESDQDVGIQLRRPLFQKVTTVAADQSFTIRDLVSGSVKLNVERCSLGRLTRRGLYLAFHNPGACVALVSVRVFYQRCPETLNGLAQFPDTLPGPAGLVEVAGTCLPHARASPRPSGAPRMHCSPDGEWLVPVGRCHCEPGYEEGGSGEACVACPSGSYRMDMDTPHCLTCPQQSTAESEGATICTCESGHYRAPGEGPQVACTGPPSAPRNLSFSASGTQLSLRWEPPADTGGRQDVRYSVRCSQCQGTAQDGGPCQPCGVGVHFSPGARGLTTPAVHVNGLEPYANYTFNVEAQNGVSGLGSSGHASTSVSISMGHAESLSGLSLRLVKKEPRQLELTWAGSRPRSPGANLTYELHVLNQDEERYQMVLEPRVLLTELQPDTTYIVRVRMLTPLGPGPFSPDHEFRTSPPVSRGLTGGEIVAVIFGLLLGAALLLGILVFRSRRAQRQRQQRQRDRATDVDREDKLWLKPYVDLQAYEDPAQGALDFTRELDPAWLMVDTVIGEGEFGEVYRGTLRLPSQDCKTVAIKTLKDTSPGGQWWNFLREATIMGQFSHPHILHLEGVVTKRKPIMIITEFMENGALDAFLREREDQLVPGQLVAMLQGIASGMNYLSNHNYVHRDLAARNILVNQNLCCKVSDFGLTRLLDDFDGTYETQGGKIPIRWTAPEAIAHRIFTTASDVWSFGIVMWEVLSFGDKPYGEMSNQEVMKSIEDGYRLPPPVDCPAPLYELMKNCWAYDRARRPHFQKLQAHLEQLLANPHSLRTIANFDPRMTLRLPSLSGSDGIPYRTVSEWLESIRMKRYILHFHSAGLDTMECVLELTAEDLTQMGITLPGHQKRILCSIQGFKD", "experiment": "KinomeScan", "type": "binding", "details": "1uM"}, "STK39": {"target": "T22, STK39 (Homo sapiens, UniProt Q9UEW8)", "T22 construct": "purchased DiscoveRx KINOMEscan", "experiment": "KinomeScan", "type": "binding", "details": "1uM"}, "EPHB1": {"target": "T23, EPHB1 (Homo sapiens, UniProt P54762)", "T23 construct": "purchased DiscoveRx KINOMEscan", "experiment": "KinomeScan", "type": "binding", "details": "1uM"}, "[2]": {"target": "T24, RPS6KA5(Kin.Dom.1-N-terminal) (Homo sapiens, UniProt O75582)", "T24 construct": "RPS6KA5(Kin.Dom.1-N-terminal); purchased DiscoveRx KINOMEscan", "T24 sequence (O75582 1-387 limits assumed)": "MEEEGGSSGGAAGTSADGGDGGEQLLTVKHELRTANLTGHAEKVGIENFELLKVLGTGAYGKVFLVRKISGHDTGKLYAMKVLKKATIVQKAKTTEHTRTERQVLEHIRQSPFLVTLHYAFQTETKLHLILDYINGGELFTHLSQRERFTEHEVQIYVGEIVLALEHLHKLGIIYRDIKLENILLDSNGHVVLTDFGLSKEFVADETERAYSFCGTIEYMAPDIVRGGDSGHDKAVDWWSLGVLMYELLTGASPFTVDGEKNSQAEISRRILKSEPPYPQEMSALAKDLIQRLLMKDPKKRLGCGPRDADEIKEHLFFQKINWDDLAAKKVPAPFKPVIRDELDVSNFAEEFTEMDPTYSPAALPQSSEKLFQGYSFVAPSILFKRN", "experiment": "KinomeScan", "type": "binding", "details": "1uM"}, "JNK2": {"target": "T25, JNK2 (Homo sapiens, UniProt P45984)", "T25 construct": "purchased DiscoveRx KINOMEscan", "experiment": "KinomeScan", "type": "binding", "details": "1uM"}, "INSRR": {"target": "T26, INSRR (Homo sapiens, UniProt P14616)", "T26 construct": "purchased DiscoveRx KINOMEscan", "experiment": "KinomeScan", "type": "binding", "details": "1uM"}, "FLT3(K663Q)": {"target": "T27, FLT3(K663Q) (Homo sapiens, UniProt P36888, K663Q)", "T27 construct": "purchased DiscoveRx KINOMEscan", "experiment": "KinomeScan", "type": "binding", "details": "1uM"}, "MAK": {"target": "T28, MAK (Homo sapiens, UniProt P20794)", "T28 construct": "purchased DiscoveRx KINOMEscan", "experiment": "KinomeScan", "type": "binding", "details": "1uM"}, "CSNK1E": {"target": "T29, CSNK1E (Homo sapiens, UniProt P49674)", "T29 construct": "purchased DiscoveRx KINOMEscan", "experiment": "KinomeScan", "type": "binding", "details": "1uM"}, "WEE1": {"target": "T30, WEE1 (Homo sapiens, UniProt P30291)", "T30 construct": "purchased DiscoveRx KINOMEscan", "experiment": "KinomeScan", "type": "binding", "details": "1uM"}, "MLCK": {"target": "T31, MLCK (Homo sapiens, UniProt Q32MK0)", "T31 construct": "purchased DiscoveRx KINOMEscan", "experiment": "KinomeScan", "type": "binding", "details": "1uM"}, "PIK3CG": {"target": "T32, PIK3CG (Homo sapiens, UniProt P48736)", "T32 construct": "purchased DiscoveRx KINOMEscan", "experiment": "KinomeScan", "type": "binding", "details": "1uM"}, "IKK-beta": {"target": "T33, IKK-beta (Homo sapiens, UniProt O14920)", "T33 construct": "purchased DiscoveRx KINOMEscan", "experiment": "KinomeScan", "type": "binding", "details": "1uM"}, "RAF1": {"target": "T34, RAF1 (Homo sapiens, UniProt P04049)", "T34 construct": "purchased DiscoveRx KINOMEscan", "experiment": "KinomeScan", "type": "binding", "details": "1uM"}, "TNNI3K": {"target": "T35, TNNI3K (Homo sapiens, UniProt Q59H18)", "T35 construct": "purchased DiscoveRx KINOMEscan", "experiment": "KinomeScan", "type": "binding", "details": "1uM"}, "ERBB4": {"target": "T36, ERBB4 (Homo sapiens, UniProt Q15303)", "T36 construct": "purchased DiscoveRx KINOMEscan", "T36 sequence (Q15303 26-1308)": "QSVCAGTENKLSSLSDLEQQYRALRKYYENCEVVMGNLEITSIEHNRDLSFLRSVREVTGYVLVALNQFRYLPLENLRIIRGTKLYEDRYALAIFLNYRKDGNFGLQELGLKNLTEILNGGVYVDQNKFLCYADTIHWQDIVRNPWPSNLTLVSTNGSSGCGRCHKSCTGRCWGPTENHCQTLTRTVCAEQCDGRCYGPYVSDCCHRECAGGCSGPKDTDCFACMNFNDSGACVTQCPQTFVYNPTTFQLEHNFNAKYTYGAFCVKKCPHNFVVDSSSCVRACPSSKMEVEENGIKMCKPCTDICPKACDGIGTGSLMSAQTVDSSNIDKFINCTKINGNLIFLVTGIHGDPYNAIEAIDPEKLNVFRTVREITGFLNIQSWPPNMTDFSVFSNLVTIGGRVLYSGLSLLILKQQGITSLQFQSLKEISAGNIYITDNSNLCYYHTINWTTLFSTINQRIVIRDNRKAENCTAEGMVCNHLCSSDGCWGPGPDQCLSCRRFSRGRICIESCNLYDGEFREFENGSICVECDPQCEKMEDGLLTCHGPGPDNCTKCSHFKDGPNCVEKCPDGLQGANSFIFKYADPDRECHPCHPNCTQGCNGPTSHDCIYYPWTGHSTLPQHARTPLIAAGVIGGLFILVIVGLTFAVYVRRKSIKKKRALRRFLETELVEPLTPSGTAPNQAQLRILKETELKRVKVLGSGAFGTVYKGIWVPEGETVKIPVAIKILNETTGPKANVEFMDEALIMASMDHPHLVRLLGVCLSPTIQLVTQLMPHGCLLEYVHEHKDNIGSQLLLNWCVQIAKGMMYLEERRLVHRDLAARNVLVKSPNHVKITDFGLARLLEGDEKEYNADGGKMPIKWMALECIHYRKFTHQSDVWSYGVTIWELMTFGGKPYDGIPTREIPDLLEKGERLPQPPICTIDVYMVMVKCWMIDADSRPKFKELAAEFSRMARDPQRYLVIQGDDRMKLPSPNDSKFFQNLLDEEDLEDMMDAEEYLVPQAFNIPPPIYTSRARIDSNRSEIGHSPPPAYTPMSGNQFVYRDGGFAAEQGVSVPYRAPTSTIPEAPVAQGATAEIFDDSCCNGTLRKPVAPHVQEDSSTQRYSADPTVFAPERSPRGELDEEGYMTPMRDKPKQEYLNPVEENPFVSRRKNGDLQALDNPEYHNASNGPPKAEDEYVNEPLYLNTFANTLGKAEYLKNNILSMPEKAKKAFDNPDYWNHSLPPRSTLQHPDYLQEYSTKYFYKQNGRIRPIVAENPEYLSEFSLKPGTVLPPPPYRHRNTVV", "experiment": "KinomeScan", "type": "binding", "details": "1uM"}, "AURKB": {"target": "T37, AURKB (Homo sapiens, UniProt Q96GD4)", "T37 construct": "purchased DiscoveRx KINOMEscan", "experiment": "KinomeScan", "type": "binding", "details": "1uM"}, "PIK3C2B": {"target": "T38, PIK3C2B (Homo sapiens, UniProt O00750)", "T38 construct": "purchased Invitrogen", "experiment": "KinomeScan", "type": "binding", "details": "1uM"}, "RET(V804L)": {"target": "T39, RET(V804L) (Homo sapiens, UniProt P07949, V804L)", "T39 construct": "purchased DiscoveRx KINOMEscan", "experiment": "KinomeScan", "type": "binding", "details": "1uM"}},
  "data": [
    {"smiles": "Cc1nc(NC(=O)[C@@H](N)C(C)C)sc1-c1cnc(Cl)c(NS(=O)(=O)c2ccccc2)c1", "note": "[PI3KD-IN-015]", "values": [
      {"measurement": "GI50", "setting": "[1]", "value": "1 to 10", "unit": "µM"},
      {"measurement": "KinomeScan PKAC-alpha", "setting": "PKAC-alpha", "value": 96},
      {"measurement": "KinomeScan ERBB2", "setting": "ERBB2", "value": 100},
      {"measurement": "KinomeScan p38-delta", "setting": "p38-delta", "value": 98},
      {"measurement": "KinomeScan ERN1", "setting": "ERN1", "value": 92},
      {"measurement": "KinomeScan ERK2", "setting": "ERK2", "value": 100},
      {"measurement": "KinomeScan DDR1", "setting": "DDR1", "value": 100},
      {"measurement": "KinomeScan IRAK4", "setting": "IRAK4", "value": 67},
      {"measurement": "KinomeScan EGFR(G719S)", "setting": "EGFR(G719S)", "value": 100},
      {"measurement": "KinomeScan GAK", "setting": "GAK", "value": 100},
      {"measurement": "KinomeScan MEK3", "setting": "MEK3", "value": 93},
      {"measurement": "KinomeScan RIPK5", "setting": "RIPK5", "value": 83},
      {"measurement": "KinomeScan PRKD3", "setting": "PRKD3", "value": 100},
      {"measurement": "KinomeScan FLT4", "setting": "FLT4", "value": 93},
      {"measurement": "KinomeScan WNK3", "setting": "WNK3", "value": 100},
      {"measurement": "KinomeScan SGK3", "setting": "SGK3", "value": 91},
      {"measurement": "KinomeScan SYK", "setting": "SYK", "value": 100},
      {"measurement": "KinomeScan CDK11", "setting": "CDK11", "value": 100},
      {"measurement": "KinomeScan KIT(D816V)", "setting": "KIT(D816V)", "value": 100},
      {"measurement": "KinomeScan CSNK1G2", "setting": "CSNK1G2", "value": 100},
      {"measurement": "KinomeScan ERK5", "setting": "ERK5", "value": 100},
      {"measurement": "KinomeScan EPHA1", "setting": "EPHA1", "value": 100},
      {"measurement": "KinomeScan STK39", "setting": "STK39", "value": 100},
      {"measurement": "KinomeScan EPHB1", "setting": "EPHB1", "value": 100},
      {"measurement": "KinomeScan RPS6KA5(Kin.Dom.1-N-terminal)", "setting": "[2]", "value": 100},
      {"measurement": "KinomeScan JNK2", "setting": "JNK2", "value": 100},
      {"measurement": "KinomeScan INSRR", "setting": "INSRR", "value": 97},
      {"measurement": "KinomeScan FLT3(K663Q)", "setting": "FLT3(K663Q)", "value": 100},
      {"measurement": "KinomeScan MAK", "setting": "MAK", "value": 72},
      {"measurement": "KinomeScan CSNK1E", "setting": "CSNK1E", "value": 100},
      {"measurement": "KinomeScan WEE1", "setting": "WEE1", "value": 100},
      {"measurement": "KinomeScan MLCK", "setting": "MLCK", "value": 95},
      {"measurement": "KinomeScan PIK3CG", "setting": "PIK3CG", "value": 0.05},
      {"measurement": "KinomeScan IKK-beta", "setting": "IKK-beta", "value": 100},
      {"measurement": "KinomeScan RAF1", "setting": "RAF1", "value": 100},
      {"measurement": "KinomeScan TNNI3K", "setting": "TNNI3K", "value": 95},
      {"measurement": "KinomeScan ERBB4", "setting": "ERBB4", "value": 98},
      {"measurement": "KinomeScan AURKB", "setting": "AURKB", "value": 100},
      {"measurement": "KinomeScan PIK3C2B", "setting": "PIK3C2B", "value": 2.2},
      {"measurement": "KinomeScan RET(V804L)", "setting": "RET(V804L)", "value": 97}
    ]}
  ]
}
